Measurements published in PubChem BioAssay (NCI).
Several values for one entry are separate records, joined by “and”; a condition that tells them apart may be missing. Equal entries are not always repeated.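 Five compound concentrations were applied to cells in 96-well plates for 48 hours; endpoints were derived by simple linear interpolation of the resulting dose-response curve. At the GI50, growth is halved. TGI denotes the concentration required for complete inhibition of growth.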

Assays:
Assay in all cases: growth of human tumour cells (NCI), 48 h
[1] = tested on: OVCAR-8 ovarian
[2] = tested on: SW-620 colon
[3] = tested on: NCI-H460 lung
[4] = tested on: SNB-75 CNS
[5] = tested on: MDA-MB-435
[6] = tested on: DU-145 prostate
[7] = tested on: NCI-H226 lung
[8] = tested on: CCRF-CEM leukemia
[9] = tested on: UACC-62 melanoma
[10] = tested on: MALME-3M melanoma

| Compound | TGI [1] [µM] | TGI [2] [µM] | TGI [3] [µM] | TGI [4] [µM] | TGI [5] [µM] | TGI [6] | TGI [7] [µM] | TGI [8] [µM] | TGI [9] [µM] | TGI [10] [µM] | GI50 [1] [µM] | GI50 [2] [µM] | GI50 [3] [µM] | GI50 [4] [µM] | GI50 [10] [µM] | GI50 [5] [µM] | GI50 [6] [µM] | GI50 [7] [µM] | GI50 [8] [µM] |
| --- | --- | --- | --- | --- | --- | --- | --- | --- | --- | --- | --- | --- | --- | --- | --- | --- | --- | --- | --- |
| COc1ccc(/C=C2\N=C(c3ccccc3)N(C3Nc4cc5c(cc4S3)NC(N3C(=O)/C(=C/c4ccc(OC)cc4)N=C3c3ccccc3)S5)C2=O)cc1 (configuration not stated) | > 100 | > 100 | > 100 | 94.2 | > 100 | > 100 µM | > 100 | – | – | – | – | – | – | – | – | – | – | – | – |
| O=S1(=O)c2ccccc2NC(=S)CC1c1ccccc1 (configuration not stated) | > 100 | – | > 100 | > 100 | > 100 | > 100 µM | > 100 | > 100 | > 100 | > 100 | – | – | – | – | – | – | – | – | – |
| COc1cc(S(=O)(=O)Nc2ccc(C3=NNC(c4ccccc4)C3)cc2)ccc1F (configuration not stated) | > 100 | > 100 | > 100 | > 100 | > 100 | > 100 µM | 61.3 | – | 45.2 | 49.8 | 68.1 | 44.4 | 32.3 | 23.9 | 13.2 | 47.2 | 76.1 | 21.2 | – |
| CC(=O)c1cc2c(s1)C(=O)c1ccccc1C2=O | 5.98 | 9.67 | > 33.4 | 23.1 | 2.21 | 12 µM | 11.4 | – | 7.01 | 2.65 | – | – | – | – | – | – | – | – | – |
| Cc1sc2ccccc2[n+]1CCC(=O)O | > 100 | > 100 | > 100 | > 100 | > 100 | > 100 µM | > 100 | – | > 100 | > 100 | – | – | – | – | – | – | – | – | – |
| Cn1cnc2c(sc3nc4ccccc4n32)c1=N | > 100 | > 100 | – | 73.8 | > 100 | > 100 µM | > 100 | > 100 | > 100 | > 100 | – | – | – | – | – | – | – | – | – |
| O=C(NCCCNCCNC(=O)c1cc(-c2ccccc2)nc2ccccc12)c1cc(-c2ccccc2)nc2ccccc12 | 3.16 | 3.09 | 3.31 | 2.83 | 3.15 | – | 5.05 | 3.42 | – | 3.43 | – | – | – | – | – | – | – | – | – |
| CSc1c(C#N)c2n(c3ccccc13)c1ccccc1[n+]2C | 59.3 | > 100 | > 100 | > 100 | 79.5 | 92.6 µM | – | 47.6 | 47.1 | 34.6 | – | – | – | – | – | – | – | – | – |
| CC1(Cl)CC2C(CC1Sc1nnnn1-c1ccccc1)C2(C)C (configuration not stated) | > 100 | > 100 | > 100 | – | – | – | > 100 | > 100 | > 100 | – | – | – | – | – | – | – | – | – | – |
| Cc1cc(C)n(CN(Cn2nc(C)cc2C)C2CCCCC2)n1 | 58.4 | 92.7 | > 100 | 76.8 | 45.4 | 62.2 µM | – | 44.8 | 41.7 | 51.9 | – | – | – | – | – | – | – | – | – |
| NCCCCNCCCNC(=O)c1nc(-c2csc(CCN)n2)sc1Cl | > 100 | > 100 | > 100 | > 100 | – | – | > 100 | > 100 | > 100 | > 100 | – | – | – | – | – | – | – | – | – |
| CCCCOCn1c(=O)[nH]c(=O)c2cc(Br)ccc21 | 88.6 | > 100 | – | > 100 | > 100 | > 100 µM | 46.9 | > 100 | > 100 | – | – | – | – | – | – | – | – | – | – |
| C[C@]12CC[C@H](O)CC1=CC[C@@H]1[C@@H]2CC[C@]2(C)/C(=N/OCCN3CCCC3)CC[C@@H]12 | 30.7 | 31.1 | 24.8 | 45 | 29.4 | – | 30 | – | 30.1 | 27.1 | – | – | – | – | – | – | – | – | – |
| COc1ccccc1Nc1nc(NNC(=O)Cc2ccccc2)nc(NNC(=O)c2ccncc2)n1 | > 10 | > 10 | > 10 | > 10 | – | > 10 µM | – | > 10 | > 10 | > 10 | – | – | – | – | – | – | – | – | – |
| COc1ccc2c(c1)/c(=C/c1ccc(N(C)C)cc1)c1cc(-c3ccccc3)[n+](C)n12 | 0.44 | 1.97 | – | 0.327 | 1.47 | 2.51 µM and 1.84 µM | 0.785 | – | 2.01 | – | – | – | – | – | – | – | 0.108 | – | 0.0859 |
| COc1cc2c(cc1OC)-c1c3c(cc4c1[C@@H](C2)N(C)CC4)OCO3 | 31.9 | 30.3 | 14.3 | 23.9 | – | – | 23 | 39.4 | 20.2 | 20.1 | – | – | – | – | – | – | – | – | – |
| CC(=O)OC1[C@H]2c3cc4c(cc3CN3CCC(=C[C@@H]1O)C23)OCO4 (some centres not stated) | > 100 | > 100 | > 100 | > 100 | – | – | > 100 | > 100 | > 100 | > 100 | – | – | – | – | – | – | – | – | – |
| C[n+]1c2ccccc2c(C(=O)Nc2ccc(S(=O)(=O)N=C(N)N)cc2)c2ccccc21 | > 100 | > 100 | > 100 | > 100 | > 100 | > 100 µM | > 100 | – | > 100 | > 100 | – | – | – | – | – | – | – | – | – |
| Clc1ccc(N=c2oc3ccccc3cc2-c2nc3ccccc3[nH]2)c(Cl)c1 | > 100 | > 100 | – | – | > 100 | > 100 µM | – | > 100 | > 100 | > 100 | – | – | – | – | – | – | – | – | – |
| C[N+](C)(C)c1ncnc2c1ncn2C1CCCCO1 (configuration not stated) | > 100 | > 100 | > 100 | > 100 | > 100 | > 100 µM | – | > 100 | > 100 | > 100 | – | – | – | – | – | – | – | – | – |
| COc1c2cc(C(C)(C)C)cc1Cc1cccc(c1O)Cc1cc(C(C)(C)C)cc(c1OC)Cc1cccc(c1O)Cc1cc(C(C)(C)C)cc(c1OC)Cc1cccc(c1O)C2 | > 100 | > 100 | > 100 | > 100 | > 100 | > 100 µM | – | – | > 100 | > 100 | – | – | – | – | – | – | – | – | – |
| NNC(=S)N1CCN(C(=S)NN)CC1 | – | > 100 | > 100 | > 100 | > 100 | > 100 µM | – | > 100 | > 100 | > 100 | – | – | – | – | – | – | – | – | – |
| c1ccc2c(c1)nc1n2CCSC1 | – | > 100 | > 100 | > 100 | > 100 | > 100 µM | – | > 100 | > 100 | – | – | – | – | – | – | – | – | – | – |
